Results reported in patent publication US9540361B2, “N-substituted azetidine derivatives” (Merck Sharp & Dohme B.V., priority 2010, dated 2017).
Where a name gives a salt, the structure may show the parent alone.

How the values were obtained:
[1] = target: T1, human estrogen receptor α (hERα) (Homo sapiens, UniProt P03372); assay: antagonistic activity in CHO cells co-transfected with hERα, rat oxytocin promoter and luciferase reporter gene; assay type: cell-based; conditions: antagonism of 17β-estradiol-induced transactivation, CHO-hERα-RO-LUC; read-out: ERα pIC50 (converted)
T1 sequence (P03372 1-595): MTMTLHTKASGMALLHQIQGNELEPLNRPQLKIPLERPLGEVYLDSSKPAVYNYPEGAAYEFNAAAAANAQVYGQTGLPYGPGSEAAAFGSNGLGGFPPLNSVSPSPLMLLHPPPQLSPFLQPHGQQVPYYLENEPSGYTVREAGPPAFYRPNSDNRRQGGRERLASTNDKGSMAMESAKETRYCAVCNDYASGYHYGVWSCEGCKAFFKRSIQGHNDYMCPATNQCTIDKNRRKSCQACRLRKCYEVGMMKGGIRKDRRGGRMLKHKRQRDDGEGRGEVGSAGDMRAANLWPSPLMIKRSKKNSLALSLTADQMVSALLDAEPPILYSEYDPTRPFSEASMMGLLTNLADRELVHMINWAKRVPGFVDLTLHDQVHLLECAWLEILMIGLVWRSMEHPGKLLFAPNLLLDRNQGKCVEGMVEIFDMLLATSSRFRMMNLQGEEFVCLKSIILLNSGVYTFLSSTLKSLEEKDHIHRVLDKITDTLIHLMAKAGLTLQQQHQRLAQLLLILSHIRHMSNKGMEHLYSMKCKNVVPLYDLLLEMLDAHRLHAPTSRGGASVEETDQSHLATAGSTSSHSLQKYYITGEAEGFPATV
Experimental: The antagonistic activity of compounds on the estrogen receptors was determined in an in vitro bioassay with recombinant Chinese Hamster Ovary (CHO) cells stably co-transfected with the human estrogen receptor α (hERα), the rat oxytocin promoter (RO) and the luciferase reporter gene (LUC). […] The antagonistic efficacy, i.e. the amount of maximal inhibition of the 17β-estradiol activated receptor by a compound, is expressed as fraction relative to the maximal inhibition as induced by the standard anti-estrogen ICI 164,384 (efficacy test compound=(maximal inhibition test compound/maximal inhibition ICI 164,384)). A more detailed description of the methodology can be found in De Gooyer et al., Steroids, 68 (2003) 21-30.

estrogen receptor alpha = target: T2, estrogen receptor alpha (Homo sapiens, UniProt P03372); assay: ERα downregulation assay in T47D breast cancer cells (ERα ELISA); assay type: cell-based; conditions: downregulation of ERα relative to fulvestrant (100%), 1E-5 M, 24 hours, negative = upregulation
T2 construct: endogenous in cells; host or cells: T47D human breast cancer cells (ATCC)
T2 sequence (P03372 1-595): T1 sequence (P03372 1-595)
Description: More specifically, this in vitro bioassay is used to determine the efficacy (fraction of maximal response) of the compound by comparing the data for this compound with those of the reference compound ICI 182,780 (fulvestrant) in the same test (downregulation of fulvestrant is 100% by definition).
A more detailed description of the method used is as follows.
Cell culture. The human epithelial breast cancer cell line T47D (origin: ATCC) was routinely maintained in a 1:1 mixture of Ham's F12 medium and Dulbecco's Modified Eagle Medium (Gibco) enriched with 5% fetal calf serum (Hyclone), 10 mM HEPES pH 7.5 and 100 μg/ml penicillin-streptomycin solution. Cells were grown in 80 cm2 culture flasks (Nunc, Roskilde, Denmark) and kept in an atmosphere of 5% CO2-95% air at 37 degrees Celsius. Cells were subcultured when they reached about 80-90% confluence, resulting in one passage a week. Subculturing includes detaching the cells using Cell Dissociation Buffer [Sigma] and subsequent inoculation at 1:5 or 1:10 in a new Roux flask (175 cc) and\or plating out in Nunclon™ Surface 96 wells microplates. The culture medium needs to be refreshed on day three or four of the incubation, if applicable.
Determination of ERα protein levels: T47D cells in the microplates are incubated with 1E-5 M test compound for 24 hours. The supernatant in all wells is carefully aspirated. Cells are lysed on the microplate and cell lysates are probed for ERα content using an ERα ELISA assay kit (Active Motif).

IC50 [1] [nM] | DR (%) (estrogen receptor alpha) | SMILES
7.94 | 96 | CCCN1CC(Oc2ccc(C(=O)c3c(-c4ccccc4)noc3-c3ccc(O)cc3)cc2)C1.Cl [compound 7ai, (5-(4-hydroxyphenyl)-3-phenylisoxazol-4-yl)(4-(1-propylazetidin-3-yloxy)-phenyl)methanone hydrochloride]
2 | 98 | CCCN1CC(Oc2ccc(C(=O)c3c(-c4sccc4C)noc3-c3ccc(O)cc3)cc2)C1.Cl [compound 7an, (5-(4-hydroxyphenyl)-3-(3-methylthiophen-2-yl)isoxazol-4-yl)(4-(1-propylazetidin-3-yloxy)phenyl)methanone hydrochloride]
2 | 48 | CN1CC(Oc2ccc(C(=O)c3c(-c4ccc(O)cc4)sc4cc(O)ccc34)cc2)C1.Cl [compound 7d, (6-hydroxy-2-(4-hydroxyphenyl)benzo[b]thiophen-3-yl)(4-(1-methylazetidin-3-yloxy)phenyl)methanone hydrochloride]
2.51 | 98 | O=C(O)C(F)(F)F.O=C(c1ccc(OC2CN(CCCF)C2)cc1)c1c(-c2ccc(O)cc2)sc2cc(O)ccc12 [compound 7j, (4-(1-(3-fluoropropyl)azetidin-3-yloxy)phenyl)(6-hydroxy-2-(4-hydroxyphenyl)benzo[b]thiophen-3-yl)methanone 2,2,2-trifluoroacetate]
25.1 | 80 | CCCN1CC(Oc2ccc(C(=O)c3c(-c4ccccc4Cl)noc3-c3ccccc3)cc2)C1 [compound 7ao, (3-(2-chlorophenyl)-5-phenyl)isoxazol-4-yl)(4-(1-propylazetidin-3-yloxy)-phenyl)methanone hydrochloride]
3.98 | 58 | CCCN1CC(Oc2ccc([C@H]3c4ccc(O)cc4OC(C)(C)[C@@H]3c3ccccc3)cc2)C1.O=C(O)C(F)(F)F [compound 6p, (3S,4S)-2,2-dimethyl-3-phenyl-4-(4-(1-propylazetidin-3-yloxy)phenyl)chroman-7-ol 2,2,2-trifluoroacetate]
0.398 | 86 | CCCN1CC(Oc2ccc(-c3c(-c4c(C)cccc4Cl)noc3-c3ccc(O)cc3)cc2)C1.O=C(O)C(F)(F)F [compound 7ab, 4-(3-(2-chloro-6-methylphenyl)-4-(4-(1-propylazetidin-3-yloxy)phenyl)isoxazol-5-yl)phenol 2,2,2-trifluoroacetate]
0.631 | 68 | C=CCN1CC(Oc2ccc(-c3c(-c4ccc(O)cc4)sc4cc(O)ccc34)cc2)C1.O=C(O)C(F)(F)F [compound 7b, 3-(4-(1-allylazetidin-3-yloxy)phenyl)-2-(4-hydroxyphenyl)benzo[b]thiophen-6-ol 2,2,2-trifluoroacetate]
1.26 | 77 | Cl.O=C(c1ccc(OC2CN(CC3CCC3)C2)cc1)c1c(-c2ccc(O)cc2)sc2cc(O)ccc12 [compound 7n, (4-(1-(cyclobutylmethyl)azetidin-3-yloxy)phenyl)(6-hydroxy-2-(4-hydroxyphenyl)benzo[b]thiophen-3-yl)methanone hydrochloride]
1.58 | 101 | CCCN1CC(Oc2ccc(C(=O)c3c(-c4ccccc4Cl)noc3-c3ccc(O)cc3)cc2F)C1.Cl [compound 7at, (3-(2-chlorophenyl)-5-(4-hydroxyphenyl)isoxazol-4-yl)(3-fluoro-4-(1-propylazetidin-3-yloxy)phenyl)methanone hydrochloride]
25.1 | 75 | CCCN1CC(Oc2ccc([C@H]3c4ccc(OC)cc4OC(C)(C)[C@@H]3c3ccccc3)cc2)C1.O=C(O)C(F)(F)F [compound 6o, 3-(4-((3S,4S)-7-methoxy-2,2-dimethyl-3-phenylchroman-4-yl)phenoxy)-1-propylazetidine 2,2,2-trifluoroacetate]
1 | 73 | CC(C)CN1CC(Oc2ccc(C(=O)c3c(-c4ccc(O)cc4)sc4cc(O)ccc34)cc2)C1.Cl [compound 7m, (6-hydroxy-2-(4-hydroxyphenyl)benzo[b]thiophen-3-yl)(4-(1-isobutylazetidin-3-yloxy)phenyl)methanone hydrochloride]
5.01 | 73 | Cl.O=C(c1ccc(OC2CN(CC3CCOC3)C2)cc1)c1c(-c2ccc(O)cc2)sc2cc(O)ccc12 (centres unmarked) [compound 7o, (6-hydroxy-2-(4-hydroxyphenyl)benzo[b]thiophen-3-yl)(4-(1-((tetrahydrofuran-3-yl)methyl)azetidin-3-yloxy)phenyl)methanone hydrochloride]
2.51 | 66 | O=C(O)C(F)(F)F.O=C(c1ccc(OC2CN(C3CC3)C2)cc1)c1c(-c2ccc(O)cc2)sc2cc(O)ccc12 [compound 7i, (4-(1-cyclopropylazetidin-3-yloxy)phenyl)(6-hydroxy-2-(4-hydroxyphenyl)-benzo[b]thiophen-3-yl)methanone 2,2,2-trifluoroacetate]
1 | 92 | CCCN1CC(Oc2ccc(-c3c(-c4ccccc4CC)noc3-c3ccc(O)cc3)cc2)C1.O=C(O)C(F)(F)F [compound 7ad, 4-(3-(2-ethylphenyl)-4-(4-(1-propylazetidin-3-yloxy)phenyl)isoxazol-5-yl)-phenol 2,2,2-trifluoroacetate]
2 | 96 | CCCN1CC(Oc2ccc(C(=O)c3c(-c4ccccc4)sc4cc(O)ccc34)cc2)C1.Cl [compound 7e, (6-hydroxy-2-phenylbenzo[b]thiophen-3-yl)(4-(1-propylazetidin-3-yloxy)-phenyl)methanone hydrochloride]
15.8 | 51 | CCCN1CC(Oc2ccc(C(=O)c3c(-c4cccc(O)c4)noc3-c3ccccc3F)cc2)C1.Cl [compound 7ba, (5-(2-fluorophenyl)-3-(3-hydroxyphenyl)isoxazol-4-yl)(4-(1-propylazetidin-3-yloxy)phenyl)methanone hydrochloride]
2 | 98 | CCCN1CC(Oc2ccc(C(=O)c3c(-c4cc(F)cc(F)c4)sc4cc(O)ccc34)cc2)C1.Cl [compound 7t, (2-(3,5-difluorophenyl)-6-hydroxybenzo[b]thiophen-3-yl)(4-(1-propylazetidin-3-yloxy)phenyl)methanone hydrochloride]
2.51 | 88 | CCCN1CC(Oc2ccc(C(=O)c3c(-c4cccs4)sc4cc(O)ccc34)cc2)C1.Cl [compound 7f, (6-hydroxy-2-(thiophen-2-yl)benzo[b]thiophen-3-yl)(4-(1-propylazetidin-3-yl-oxy)phenyl)methanone hydrochloride]
25.1 | 78 | CCCN1CC(Oc2ccc(C(=O)c3c(-c4ccccc4Cl)noc3-c3cc[nH]c3)cc2)C1.O=C(O)C(F)(F)F [compound 7aq, (3-(2-chlorophenyl)-5-(1H-pyrrol-3-yl)isoxazol-4-yl)(4-(1-propylazetidin-3-yl-oxy)phenyl)methanone 2,2,2-trifluoroacetate]
5.01 | 101 | CCCN1CC(Oc2ccc(C(=O)c3c(-c4ccc(F)c(C)c4)sc4cc(O)ccc34)cc2)C1.Cl [compound 7s, (2-(4-fluoro-3-methylphenyl)-6-hydroxybenzo[b]thiophen-3-yl)(4-(1-propylazetidin-3-yloxy)phenyl)methanone hydrochloride]
0.794 | 30 | Cl.O=C(c1ccc(OC2CN(C3CCC3)C2)cc1)c1c(-c2ccc(O)cc2)sc2cc(O)ccc12 [compound 7l, (4-(1-cyclobutylazetidin-3-yloxy)phenyl)(6-hydroxy-2-(4-hydroxyphenyl)-benzo[b]thiophen-3-yl)methanone hydrochloride]
